The values below come from patent publication US8008303B2, “Biphenyl derivatives and their use in treating hepatitis C” (AstraZeneca AB, priority 2005, dated 2011).

Series [1] relates to HCV replicon cells Huh 9B. The series can be described thus: HCV replicon assay (luciferase readout). It is filed as cell-based. How it is done: (§1) HCV replicon cells Huh 9B (ReBlikon), containing the firefly luciferase-ubiquitin-neomycin phosphotransferase fusion protein and EMCV-IRES driven HCV polyprotein with cell culture adaptive mutations.
Cells were cultured at 37° C. in a 5% CO2 environment and split twice a week on seeding at 2×10^6 cells/flask on day 1 and 1×10^6 3 days later. G418 at 0.5 mg/ml was added to the culture medium but not the assay medium.
The culture medium consisted of DMEM with […] glucose and glutamax (Gibco 61965-026) supplemented with 1× non-essential amino acids (Invitrogen 11140-035), penicillin (100 IU/ml)/streptomycin (100 μg/ml) (Invitrogen 15140-122), FCS (10%, 50 ml) and 1 mg/ml G418 (Invitrogen 10131-027) & 10% Australian foetal calf serum (Invitrogen 10099-141).
A flask of cells was trypsinised and a cell count carried out. Cells were diluted to 100,000 cells/ml and 100 μl of this used to seed one opaque white 96-well plate (for the replicon assay) and one flat-bottomed clear plate (for the tox assay) for every seven compounds to be tested for IC50. Wells G12 and H12 were left empty in the clear plate as the blank. Plates were then incubated at 37° C. in a 5% CO2 environment for 24 h.
(§2) On the following day compound dilutions are made up in medium at twice their desired final concentration in a clear round bottomed plate. All dilutions have a final DMSO concentration of 1%.
Once the dilution plate had been made up, controls and compounds were transferred to the assay plate (containing the cells) at 100 μl /well in duplicate plates. Exception: no compound was added to wells A1 and A2 of either plate and 100 μl of 1% DMSO was added to these instead. Plates were then incubated at 37° C. with 5% CO2 for 72 h.
At the end of the incubation time, the cells in the white plate were harvested by washing 23.5 mM beetle luciferin (Promega E1603), 26 mM ATP (Sigma 0-2060) in […] Tris buffer pH 7.8 aliquoted and stored at −80 C was thawed and diluted 1:50 in luciferase assay buffer (20 mM Tricine (Sigma T-0377), 1.07 mM magnesium carbonate hydroxide (Sigma M-5671), 0.1 mM EDTA (Sigma E-5134), 2.67 mM MgSO4 (BDH 101514Y), 33.3 mM dithiothreitol (Sigma 150460) pH 7.8).
The M injector of the microplate luminometer (Lmax, Molecular Devices) was primed with 5×300 μl injections of the diluted substrate. After 5-60 min incubation in lysis buffer at room temperature, a plate was inserted into the luminometer and 100 μl luciferase assay reagent was added by the injector on the luminometer. The signal was measured using a 1 second delay followed by a 4 second measurement programme.
(In general: Replicon systems follow genome replication, usually without infectious particles.)

In series [2] the test system is HCV replicon cells Huh 9B. The series is classed as cell-based. How it is done: as §1
A flask of cells was trypsinised and a cell count carried out. […] Wells G12 and H12 were left empty in the clear plate as the blank. Plates were then incubated at 37° C. in a 5% CO2 environment for 24 h.
as §2
Exception: no compound was added to wells A1 and A2 of either plate and 100 μl of 1% DMSO was added to these instead. Plates were then incubated at 37° C. with 5% CO2 for 72 h.
The clear plate was stained with 100 μl 0.5% methylene blue in 50% ethanol at room temperature for 1 h, followed by solvation of the absorbed methylene blue in 100 μl per well of 1% lauroylsarcosine. Absorbance of the plate was measured on a microplate spectrophotometer (Molecular Devices) and the absorbance for each concentration of compound expressed as a proportion of the relative DMSO control.

[3] abbreviates: Hepatitis C virus, 72 h, concentration reducing replicon level (luciferase activity) by 50% vs untreated cell control, 72 h incubation.
Where [4] appears, read: concentration reducing total cell area by 50% relative to DMSO controls, methylene blue, absorbance 620 nm, 72 h incubation.

pIC50: −log10 of the molar value. Like-named read-outs stand apart in the source and are kept apart here.

For orientation: pIC50 means −log10 of the IC50, conventionally taken in molar units. High values mean a small IC50, low ones a large IC50.

Turning to `Cc1ccc(C(=O)Nc2ccc(N3CCOCC3)cc2)cc1-c1ccc(C(=O)Nc2ccc(CN3CCCC3)cc2)cc1` [Example 75, 6-Methyl-biphenyl-3,4′-dicarboxylic acid 3-[(4-morpholin-4-yl-phenyl)-amide] 4′-[(4-pyrrolidin-1-ylmethyl-phenyl)-amide]], the pIC50 in series [1] was under 5.30. The TD50 entry in series [2] is “* (key: * < 50 μM; ** > 50 μM)”.
The like results for `Cc1ccc(C(=O)Nc2ccc(N3CCOCC3)cc2)cc1-c1ccc(C(=O)Nc2ccc3[nH]c(=O)[nH]c3c2)cc1` [Example 79, 6-Methyl-biphenyl-3,4′-dicarboxylic acid 3-[(4-morpholin-4-yl-phenyl)-amide] 4′-[(2-oxo-2,3-dihydro-1H-benzoimidazol-5-yl)-amide]] were, in that order, under 5.30 and “* (key: * < 50 μM; ** > 50 μM)”.
Taken in the same sequence, the figures for `Cc1ccc(C(=O)NCCC(C)C)cc1-c1ccc(C(=O)Nc2ccc(CN3CCS(=O)(=O)CC3)cc2)cc1` [Example 122, 6-Methyl-biphenyl-3,4′-dicarboxylic acid 4′-{[4-(1,1-dioxo-1lambda*6*-thiomorpholin-4-ylmethyl)-phenyl]-amide} 3-[(3-methyl-butyl)-amide]] were over 6.00 and “* (key: * < 50 μM; ** > 50 μM)”.
Consider `Cc1ccc(NC(=O)c2cccs2)cc1-c1ccc(C(=O)Nc2ccc3cn[nH]c3c2)cc1` [Example 213, Thiophene-2-carboxylic acid [4′-(1H-indazol-6-ylcarbamoyl)-6-methyl-biphenyl-3-yl]-amide], for which the pIC50 in series [1] (setting [3]) was 5.30 to 6.00. For the same molecule, in series [2] (setting [4]), the TD50 entry is “* (* < 50 μM)”.
`Cc1ccc(C(=O)Nc2ccc(N3CCOCC3)cc2)cc1-c1ccc(C(=O)NCCc2cnc[nH]2)cc1` [Example 13, 6-Methyl-biphenyl-3,4′-dicarboxylic acid 4′-{[2-(3H -imidazol-4-yl)-ethyl]-amide} 3-[(4-morpholin-4-yl-phenyl)-amide]] had a pIC50 in series [1] of under 5.30. Further, in series [2], the TD50 entry is recorded as “* (key: * < 50 μM; ** > 50 μM)”.
In series [1] (setting [3]), `CNCC(=O)Nc1ccc(Cl)c(-c2ccc(C(=O)Nc3ccc(CN4CCN(S(C)(=O)=O)CC4)cc3)cc2)c1` [Example 252, 2′-Chloro-5′-(2-methylamino-acetylamino)-biphenyl-4-carboxylic acid [4-(4-methanesulfonyl-piperazin-1-ylmethyl)-phenyl]-amide] had a pIC50 of over 6.00. In addition, the TD50 result in series [2] (setting [4]) is listed as “* (* < 50 μM)”.
For `Cc1ccc(NC(=O)C2CC2)cc1-c1ccc(C(=O)Nc2ccc(CN3CCS(=O)(=O)CC3)cc2)cc1` [Example 132, 5′-(Cyclopropanecarbonyl-amino)-2′-methyl-biphenyl-4-carboxylic acid [4-(1,1-dioxo-1lambda*6*-thiomorpholin-4-ylmethyl)-phenyl]-amide], the pIC50 in series [1] (setting [3]) is over 6.00. Moreover, the TD50 result in series [2] (setting [4]) is “* (* < 50 μM)”.
On to `Cc1ccc(C(=O)Nc2ccc(N3CCOCC3)cc2)cc1-c1ccc(CNC2CC2)cc1` [Example 98, 4′-Cyclopropylaminomethyl-6-methyl-biphenyl-3-carboxylic acid (4-morpholin-4-yl-phenyl)-amide], for which the pIC50 in series [1] (setting [3]) was 5.30 to 6.00. Moreover, in series [2] (setting [4]), the TD50 entry is recorded as “* (* < 50 μM)”.
Regarding `Cc1ccc(C(=O)Nc2ccc(N3CCOCC3)cc2)cc1-c1ccc(C(=O)Nc2cccc(F)c2)cc1` [Example 27, 6-Methyl-biphenyl-3,4′-dicarboxylic acid 4′-[(3-fluoro-phenyl)-amide] 3-[(4-morpholin-4-yl-phenyl)-amide]], in series [1], the pIC50 was 5.30 to 6.00. The TD50 entry in series [2] is given as “** (key: * < 50 μM; ** > 50 μM)”.
On to `Cc1ccc(NC(=O)c2ccc(Br)cc2)cc1-c1ccc(C(=O)Nc2ccc(-c3cnco3)cc2)cc1` [Example 212, 5′-(4-Bromo-benzoylamino)-2′-methyl-biphenyl-4-carboxylic acid (4-oxazol-5-yl-phenyl)-amide], for which the pIC50 in series [1] (setting [3]) is under 5.30. The TD50 result in series [2] (setting [4]) was “** (** > 50 μM)”.
The like results for `COc1cccc(C(=O)Nc2ccc(-c3cccc(C(=O)Nc4ccc(N5CCOCC5)cc4)c3)c(C)c2)c1` [Example 116, 4′-(3-Methoxy-benzoylamino)-2′-methyl-biphenyl-3-carboxylic acid (4-morpholin-4-yl-phenyl)-amide] were, in that order, 5.30 to 6.00 and “* (* < 50 μM)”.
Taken in the same sequence, the figures for `COc1cccc(C(=O)Nc2ccc(-c3cc(C(=O)Nc4ccc(N5CCOCC5)cc4)ccc3C)cc2)c1` [Example 107, 4′-(3-Methoxy-benzoylamino)-6-methyl-biphenyl-3-carboxylic acid (4-morpholin-4-yl-phenyl)-amide] were over 6.00 and “** (** > 50 μM)”.
Taken in the same sequence, the figures for `CCCC(=O)Nc1ccc(C)c(-c2ccc(C(=O)Nc3ccc(CN4CCS(=O)(=O)CC4)cc3)cc2)c1` [Example 182, 5′-Butyrylamino-2′-methyl-biphenyl-4-carboxylic acid [4-(1,1-dioxo-1lambda*6*-thiomorpholin-4-ylmethyl)-phenyl]-amide] were over 6.00 and “* (* < 50 μM)”.
Molecule `CCCS(=O)(=O)N1CCN(Cc2ccc(NC(=O)c3ccc(-c4cc(C(=O)Nc5ccc(N6CCOCC6)cc5)ccc4OC)cc3)cc2)CC1` [Example 257, 6-Methoxy-biphenyl-3,4′-dicarboxylic acid 3-[(4-morpholin-4-yl-phenyl)-amide] 4′-({4-[4-(propane-1-sulfonyl)-piperazin-1-ylmethyl]-phenyl}-amide)] had a pIC50 in series [1] of over 6.00. The TD50 result in series [2] (setting [4]) is recorded as “* (* < 50 μM)”.
On to `Cc1ccc(C(=O)Nc2ccc(N3CCOCC3)cc2)cc1-c1ccc(NC(=O)c2cnccc2C(F)(F)F)cc1` [Example 111, N-[2′-Methyl-5′-(4-morpholin-4-yl-phenylcarbamoyl) -biphenyl-4-yl]-4-trifluoromethyl-nicotinamide], for which, in series [1] (setting [3]), the negative-log IC50 (pIC50) was under 5.30. In addition, in series [2] (setting [4]), the TD50 result is “** (** > 50 μM)”.
The like results for `Cc1ccc(C(=O)Nc2ccc(CN3CCS(=O)(=O)CC3)cc2)cc1-c1ccc(C(=O)Nc2ccc(CN3CCS(=O)(=O)CC3)cc2)cc1` [Example 129, 6-Methyl-biphenyl-3,4′-dicarboxylic acid bis-{[4-(1,1-dioxo-1lambda*6*-thiomorpholin-4-ylmethyl)-phenyl]-amide}] were, in that order, over 6.00 and “* (* < 50 μM)”.
Molecule `Cc1ccc(C(=O)Nc2ccc(N3CCOCC3)cc2)cc1-c1ccc(C(=O)NCCN2CCCCC2)cc1` [Example 6, 6-Methyl-biphenyl-3,4′-dicarboxylic acid 3-[(4-morpholin-4-yl-phenyl)-amide] 4′-[(2-piperidin-1-yl-ethyl)-amide]] gave a pIC50 in series [1] of 5.30 to 6.00. Moreover, in series [2], the TD50 entry was “* (key: * < 50 μM; ** > 50 μM)”.
The like results for `COc1ccc(C(=O)Nc2ccc(N3CCS(=O)(=O)CC3)cc2)cc1-c1ccc(C(=O)Nc2ccc(N3CCN(C)CC3)cc2)cc1` [Example 261, 6-Methoxy-biphenyl-3,4′-dicarboxylic acid 3-{[4-(4-(1,1-dioxo-1lambda*6*-thiomorpholin-4-yl)-phenyl]-amide} 4′-{[4-(4-methyl-piperazin-1-yl)-phenyl]-amide}] were, in that order, 5.30 to 6.00 and “* (key: * < 50 μM; ** > 50 μM)”.
